Data as given in patent US10555522B2, “Long term methods of improving disease tolerance in plants” (priority 2016, dated 2020).

What was measured:
[1] = system: Early Blight (Alternaria tomatophila); test: Evaluation of Early Blight on tomatoes (field trial); type: in vivo
Protocol: In the instant example, symptoms of fungal infection with Early Blight (Alternaria tomatophila) on tomatoes were evaluated. Plants were either treated with a composition comprising 1-MCP or left untreated.
(§1) Tomato seedlings (var Charger) with approximately 4 leaves (approximately 4-5 inches tall) in seedling trays were either i) sprayed with 1-MCP (1-10 g ai/ha) or ii) left untreated. Contacting the plants was achieved using pressurized backpack sprayer. Two days later, the seedlings were transplanted into the open field near Thonotosassa, Fla. following normal commercial tomato production practices.
(§2) Throughout the growing season, normal field production practices were performed, including fertilization, watering, and pest control (e.g., insecticide, fungicide, and herbicide) applications uniformly to the entire trial area. Beginning approximately 3 weeks later, and continuing approximately 7 weeks later and approximately 11 weeks later, the percent disease severity ratings were made in each plot of plants that were treated with 1-MCP and the corresponding plot of plants that were untreated.

[2] = system: Beet Curly Top Virus (BCTV); test: Evaluation of Beet Curly Top Virus on tomatoes (field trial, seedlings treated before transplantation); type: in vivo; conditions: tomato var Heinz 8504; seedlings sprayed with 4 gm ai/ha two days before transplant; rated approximately 8 weeks later; P = 0.065
Protocol: In the instant example, symptoms of infection with Beet Curly Top Virus (BCTV) on tomatoes were evaluated. Plants were either treated with a composition comprising 1-MCP or left untreated.
Tomato seedlings (var Heinz 8504) with 4 leaves (approximately 4 inches tall) in seedling trays were either i) sprayed with a treatment of 1-MCP (4 gm ai/ha) or ii) left untreated. Contacting the plants was achieved using a pressurized backpack spraying system containing 1-MCP and water. Two days later, the tomato seedlings were transplanted into the open field near Five Points, Calif. following normal commercial tomato production practices.
Throughout the growing season, normal field production practices were performed, including fertilization, watering, and pest control (e.g., insecticide, fungicide, and herbicide) applications uniformly to the entire trial area. Approximately eight (8) weeks later, when the tomatoes had grown to approximately 2 feet tall, an infestation of Beet Curly Top Virus (BCTV) was noted. Observations were taken on percentage of plants infected with BCTV in treated and untreated plots.

[3] = system: Tomato Yellow Leaf Curl Virus (TYLCV); test: Evaluation of Tomato Yellow Leaf Curl Virus on tomatoes (field trial); type: in vivo, Tomato Yellow Leaf Curl Virus (Begomovirus Geminiviridae); conditions: tomato var Florida 47; seedlings treated with 50 ppm ai by watering can three days before transplant; rated approximately 9 weeks later; P = 0.081
Protocol: In the instant example, symptoms of infection with Tomato Yellow Leaf Curl Virus (TYLCV) on tomatoes were evaluated. Plants were either treated with a composition comprising 1-MCP or left untreated.
as §1, with “Florida 47)” for “Charger)”, “4” for “4-5”, “(50 ppm ai)” for “(1-10 g ai/ha)”, “a watering can containing 1-MCP and water. Three” for “pressurized backpack sprayer. Two”, “Myakka City,” for “Thonotosassa,”
(§3) Throughout the growing season, normal field production practices were performed, including fertilization, watering, and pest control (e.g., insecticide, fungicide, and herbicide) applications uniformly to the entire trial area. Approximately 9 weeks later, when the tomatoes had grown to approximately 3 feet tall, an infestation of Tomato Yellow Leaf Curl Virus was observed. In each plot of plants that were treated with 1-MCP, and the corresponding plot of plants that were untreated, counts were made of the number of plants showing symptoms of infection by TYLCV out of the total of 54 plants per plot.

[4] = system: Target Spot (Corynespora cassiicola); test: Evaluation of Target Spot infection on tomatoes (field trial); type: in vivo; conditions: tomato var HM 1823; seedlings treated with 50 ppm ai by watering can three days before transplant; rated approximately 9 weeks later; P = 0.003
Protocol: In the instant example, symptoms of Target Spot […] infection (Corynespora cassiicola) on tomatoes were evaluated. Plants were either treated with a composition comprising 1-MCP or left untreated.
as §1, with “HM 1823)” for “Charger)”, “4” for “4-5”, “(50 ppm ai)” for “(1-10 g ai/ha)”, “a watering can containing 1-MCP and water. Three” for “pressurized backpack sprayer. Two”, “Myakka City,” for “Thonotosassa,”
as §3, with “Target Spot” for “Tomato Yellow Leaf Curl Virus”, “Target Spot” for “TYLCV”

[5] = system: Downy Mildew (Pseudoperonospora cubensis); test: Evaluation of Downy Mildew on cucumbers (field trial); type: in vivo
Protocol: In the instant example, symptoms of fungal infection with Downy Mildew (Pseudoperonospora cubensis) on cucumbers were evaluated. Plants were either treated with a composition comprising 1-MCP or left untreated.
Cucumber seedlings with approximately 3 leaves (approximately 3 inches tall) in seedling trays were either i) sprayed with 1-MCP (40 g ai/ha) or ii) left untreated. Contacting the plants was achieved using pressurized backpack sprayer. Two days later, the seedlings were transplanted into the open field near Futian Village, Wangsi Township, Dayi County, Sichuan, China, following normal commercial production practices.
as §2, with “Approximately 5-6” for “Beginning approximately 3 weeks later, and continuing approximately 7 weeks later and approximately 11”

[6] = system: Bacterial Spot (Xanthomonas euvesicatoria and Xanthomonas perforans, Xanthomonas vesicatoria, and Xanthomonas gardneri); test: Evaluation of Bacterial Spot on tomatoes (field trial); type: in vivo; conditions: tomato var Charger; seedlings sprayed with 1-40 g ai/ha two days before transplant; rated approximately 3 weeks later; p = 0.04
Protocol: In the instant example, symptoms of Bacterial Spot bacterial infection (Xanthomonas euvesicatoria and Xanthomonas perforans=[Xanthomonas axonopodis (syn. campestris) pv. vesicatoria], Xanthomonas vesicatoria, and Xanthomonas gardneri) on tomatoes were evaluated. Plants were either treated with a composition comprising 1-MCP or left untreated.
as §1, with “Tomato Seedlings” for “Tomato seedlings”, “1-MCP (1-40” for “1-MCP (1-10”
as §3, with “3” for “9”, “1½” for “3”, “tall” for “tall,”, “Bacterial Spot” for “Tomato Yellow Leaf Curl Virus”, “disease severity assessments” for “counts”, “made.” for “made of the number of plants showing symptoms of infection by TYLCV out of the total of 54 plants per plot.”

Root Rot (Pythium sp.) = test: Evaluation of Root Rot on peppers (field trial); type: in vivo
Protocol: In the instant example, symptoms of fungal infection with Root Rot (Pythium sp.) on peppers were evaluated. Plants were either treated with a composition comprising 1-MCP or left untreated.
Pepper seedlings with approximately 3 leaves (approximately 4-5 inches tall) in seedling trays were either i) sprayed with 1-MCP (1-10 g ai/ha) or ii) left untreated. Contacting the plants was achieved using a watering can containing a 50 ppm solution of 1-MCP. Three days later, the seedlings were transplanted into the open field near Clinton, N.C. following normal commercial pepper production practices.
Throughout the growing season, normal field production practices were performed, including fertilization, watering, and pest control (e.g., insecticide, fungicide, and herbicide) applications uniformly to the entire trial area.

CC1=CC1 [1-MCP, 1-methylcyclopropene]
reduction of average percent disease severity ratings for Early Blight versus untreated ([1]; across the three rating dates (approximately 3, 7, 11 weeks)): approximately 30% | average percent disease severity rating for Early Blight ([1]; tomato var Charger, seedlings sprayed with 1-10 g ai/ha two days before transplant, average across approximately 3, 7 and 11 weeks later, p = 0.09): 27.6% | Percentage of BCTV Infested Plants [2]: 4% | Mean (plants showing symptoms of infection by TYLCV out of 54 plants per plot) [3]: 11% | Percentage of Infected Plants (Target Spot) [4]: 19% | percent disease (Downy Mildew) severity rating ([5]; cucumber seedlings sprayed with 40 g ai/ha two days before transplant, rated approximately 5-6 weeks later, p = 0.08): 18% | reduction of percent disease (Downy Mildew) severity ratings versus untreated ([5]; cucumber, approximately 5-6 weeks later): approximately 47% | Bacterial Spot disease severity assessment [6]: 4% | mortality and stunting of plants caused by Pythium (Root Rot (Pythium sp.); pepper seedlings treated with 1-10 g ai/ha (watering can, 50 ppm solution) three days before transplant, versus untreated): clearly reduced the mortality and stunting of plants | plant appearance and Pythium pressure compared to untreated controls (Root Rot (Pythium sp.); pepper, two weeks after transplantation): slightly larger, darker green, and not as affected by Pythium pressure
